Reference: ChEMBL document CHEMBL5108050, “Discovery of a New Class of Uracil Derivatives as Potential Mixed Lineage Kinase Domain-like Protein (MLKL) Inhibitors” (J Med Chem, 2022)
Activity calls are given as the source filed them. The rule behind the calls is not given here.

Experiments:
HT-29 [1] = assay: Anti-necroptic activity in human HT-29 cells assessed as inhibition of TSZ induced necroptosis incubated for 5 min followed by compound washout and further induced with TSZ by celltiter-glo luminescent cell viability assay; type: functional, cell-based; settings: HT-29, 5 min
[2] = biological target: Receptor-interacting serine/threonine-protein kinase 3 (Homo sapiens) (UniProt Q9Y572); assay: Inhibition of full length RIP3 (unknown origin) assessed as substrate phosphorylation using MBP and ATP as substrate at 1 uM preincubated for 15 mins followed by substrate addition and measured after 90 mins by ADP-Glo luminescence assay; values are per cent of control; settings: time 105.0 min
Receptor-interacting serine/threonine-protein kinase 3 (Homo sapiens), sequence (Q9Y572 whole entry, looked up, the tested form may be a part): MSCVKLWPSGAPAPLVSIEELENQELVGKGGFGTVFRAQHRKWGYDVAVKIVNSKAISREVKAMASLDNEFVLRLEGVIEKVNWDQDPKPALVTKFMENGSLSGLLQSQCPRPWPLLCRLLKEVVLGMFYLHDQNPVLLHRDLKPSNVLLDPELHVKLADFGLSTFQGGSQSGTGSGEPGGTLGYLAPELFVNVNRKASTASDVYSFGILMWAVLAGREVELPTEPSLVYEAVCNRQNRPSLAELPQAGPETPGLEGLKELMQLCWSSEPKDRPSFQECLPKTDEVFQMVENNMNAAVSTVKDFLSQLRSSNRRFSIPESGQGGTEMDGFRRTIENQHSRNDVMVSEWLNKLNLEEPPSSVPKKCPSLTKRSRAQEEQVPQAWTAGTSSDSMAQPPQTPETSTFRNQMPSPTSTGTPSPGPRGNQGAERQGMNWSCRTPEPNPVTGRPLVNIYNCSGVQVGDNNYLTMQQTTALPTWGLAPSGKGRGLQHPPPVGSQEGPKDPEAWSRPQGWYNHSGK

[3] = biological target: T1, Mixed lineage kinase domain-like protein (Homo sapiens) (UniProt Q8NB16); assay: Covalent binding affinity to human recombinant MLKL at Cys86 residue assessed as covalent additive product formation by LC-MS/MS analysis
T1 sequence (whole entry): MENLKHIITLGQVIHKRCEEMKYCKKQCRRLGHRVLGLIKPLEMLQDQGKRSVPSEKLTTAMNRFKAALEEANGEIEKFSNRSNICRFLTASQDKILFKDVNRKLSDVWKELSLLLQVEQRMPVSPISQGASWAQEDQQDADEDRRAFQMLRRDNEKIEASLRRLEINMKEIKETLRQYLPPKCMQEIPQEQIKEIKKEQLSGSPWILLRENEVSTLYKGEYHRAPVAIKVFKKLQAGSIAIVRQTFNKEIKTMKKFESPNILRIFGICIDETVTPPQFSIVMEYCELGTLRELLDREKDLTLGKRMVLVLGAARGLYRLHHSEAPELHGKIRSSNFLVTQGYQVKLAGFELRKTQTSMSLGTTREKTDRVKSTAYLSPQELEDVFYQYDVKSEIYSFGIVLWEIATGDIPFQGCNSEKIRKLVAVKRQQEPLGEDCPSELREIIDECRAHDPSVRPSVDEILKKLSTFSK

[4] = biological target: T1, Mixed lineage kinase domain-like protein (Homo sapiens); assay: Inhibition of human MLKL in human HT-29 cells assessed as inhibition of TSZ (TNFalpha, Smac mimetic and z-VAD-FMK) induced MLKL translocation to cell membrane at 1 uM and measured after 8 hrs by western blot analysis; type: cell-based
HT-29 [5] = assay: Anti-necroptic activity in human HT-29 KO cells expressing MLKL K157A mutant assessed as inhibition of TSZ (TNFalpha, Smac mimetic and z-VAD-FMK) induced MLKL K157A mutant mediated necroptosis incubated for 24 hrs by celltiter-glo luminescent cell viability assay; type: functional, cell-based
HT-29 [6] = assay: Anti-necroptic activity in human HT-29 cells assessed as inhibition of TSZ induced necroptosis incubated for 1 hr followed by compound washout and further induced with TSZ by celltiter-glo luminescent cell viability assay; type: functional, cell-based; settings: HT-29, 1 h
[7] = biological target: T2, Receptor-interacting serine/threonine-protein kinase 1 (Homo sapiens) (UniProt Q13546); assay: Inhibition of RIP1 (1 to 375 residues) (unknown origin) assessed as substrate phosphorylation using MBP and ATP as substrate at 10 uM preincubated for 15 mins followed by substrate addition and measured after 90 mins by ADP-Glo luminescence assay; values are per cent of control; settings: time 105.0 min
T2 sequence (whole entry): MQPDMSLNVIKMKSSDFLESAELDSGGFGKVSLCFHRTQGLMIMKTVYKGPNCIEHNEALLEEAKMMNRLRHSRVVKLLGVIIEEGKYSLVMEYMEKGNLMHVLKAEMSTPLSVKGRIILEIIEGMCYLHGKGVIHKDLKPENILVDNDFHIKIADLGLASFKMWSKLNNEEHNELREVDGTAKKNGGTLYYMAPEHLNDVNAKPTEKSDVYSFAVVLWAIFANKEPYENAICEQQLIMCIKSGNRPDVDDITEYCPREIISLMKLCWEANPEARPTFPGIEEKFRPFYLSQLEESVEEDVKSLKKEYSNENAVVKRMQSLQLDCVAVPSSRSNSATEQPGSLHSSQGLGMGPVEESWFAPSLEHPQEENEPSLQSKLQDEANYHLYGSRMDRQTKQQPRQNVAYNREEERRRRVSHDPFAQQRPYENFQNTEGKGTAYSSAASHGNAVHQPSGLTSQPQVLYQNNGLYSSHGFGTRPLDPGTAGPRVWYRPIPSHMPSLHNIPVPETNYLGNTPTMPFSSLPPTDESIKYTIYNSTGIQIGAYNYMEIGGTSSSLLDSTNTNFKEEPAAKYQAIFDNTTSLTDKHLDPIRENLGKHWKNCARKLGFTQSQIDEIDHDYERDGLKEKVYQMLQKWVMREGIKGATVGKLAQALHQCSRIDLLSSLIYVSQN

[8] = biological target: T1, Mixed lineage kinase domain-like protein (Homo sapiens); assay: Displacement of biotin-tagged TCI3136 binding from human recombinant MLKL at Cys86 residues in human HT-29 cell lysate assessed as biotin labeled ligand-protein complex pull down at 5 uM preincubated with compound for 1 hr followed by probe addition for 1 hrs and further incubated with biotinylation of probe by click chemistry reaction for 2 hrs by pull-down assay; type: subcellular; settings: time 4.0 hrs
HT-29 [9] = assay: Anti-necroptic activity in human HT-29 cells assessed as inhibition of TSZ (TNFalpha, Smac mimetic and z-VAD-FMK) induced necroptosis incubated for 24 hrs by celltiter-glo luminescent cell viability assay; type: functional, cell-based; settings: HT-29, 24 h
HT-29 [10] = assay: Anti-necroptic activity in human HT-29 cells assessed as inhibition of TSZ induced necroptosis incubated for 3 hrs followed by TSZ stimulation by celltiter-glo luminescent cell viability assay; type: functional, cell-based; settings: HT-29, 3 h
HT-29 [11] = assay: Anti-necroptic activity in human HT-29 cells assessed as inhibition of TSZ induced necroptosis incubated for 3 hr followed by compound washout and further induced with TSZ by celltiter-glo luminescent cell viability assay; type: functional, cell-based; settings: HT-29, 3 h
[12] = biological target: T1, Mixed lineage kinase domain-like protein (Homo sapiens); assay: Inhibition of human MLKL in human HT-29 cells assessed as inhibition of TSZ (TNFalpha, Smac mimetic and z-VAD-FMK) induced MLKL oligomerization at 1 uM and measured after 6 hrs by immunoblot assay; type: cell-based
[13] = biological target: Receptor-interacting serine/threonine-protein kinase 3 (Homo sapiens) (UniProt Q9Y572); assay: Inhibition of full length RIP3 (unknown origin) assessed as substrate phosphorylation using MBP and ATP as substrate at 10 uM preincubated for 15 mins followed by substrate addition and measured after 90 mins by ADP-Glo luminescence assay; values are per cent of control; settings: time 105.0 min
[14] = GSH reactivity in DPBS buffer assessed as fold decrease in reaction rate by UPLC-MS analysis relative to control; type: ADME
[15] = biological target: T1, Mixed lineage kinase domain-like protein (Homo sapiens); assay: Inhibition of FLAG-tagged human MLKL in human HT-29 cells assessed as inhibition of TSZ (TNFalpha, Smac mimetic and z-VAD-FMK) induced MLKL phosphorylation by measuring dispersed phosphorylated MLKL in cytoplasm at 1 uM and measured after 8 hrs by Hoechst 33342 staining based immunofluorescence analysis; type: cell-based
[16] = biological target: T2, Receptor-interacting serine/threonine-protein kinase 1 (Homo sapiens); assay: Inhibition of RIP1 (1 to 375 residues) (unknown origin) assessed as substrate phosphorylation using MBP and ATP as substrate at 1 uM preincubated for 15 mins followed by substrate addition and measured after 90 mins by ADP-Glo luminescence assay; values are per cent of control; settings: time 105.0 min
[17] = biological target: T1, Mixed lineage kinase domain-like protein (Homo sapiens); assay: Inhibition of human MLKL in human HT-29 cells assessed as inhibition of TSZ (TNFalpha, Smac mimetic and z-VAD-FMK) induced MLKL oligomerization at 5 uM and measured after 6 hrs by immunoblot assay; type: cell-based
[18] = biological target: T1, Mixed lineage kinase domain-like protein (Homo sapiens); assay: Inhibition of human MLKL in human HT-29 cells assessed as inhibition of TSZ (TNFalpha, Smac mimetic and z-VAD-FMK) induced MLKL oligomerization at 200 nM and measured after 6 hrs by immunoblot assay; type: cell-based
[19] = GSH reactivity in DPBS buffer assessed as conjugation half life by UPLC-MS analysis; type: ADME; settings: glutathione (GSH) in DPBS buffer
HT-29 [20] = assay: Anti-necroptic activity in human HT-29 KO cells expressing MLKL F148A mutant assessed as inhibition of TSZ (TNFalpha, Smac mimetic and z-VAD-FMK) induced MLKL F148A mutant mediated necroptosis incubated for 24 hrs by celltiter-glo luminescent cell viability assay; type: functional, cell-based
[21] = biological target: T2, Receptor-interacting serine/threonine-protein kinase 1 (Homo sapiens); assay: Inhibition of TSZ (TNFalpha, Smac mimetic and z-VAD-FMK) induced RIPK1 phosphorylation in human HT-29 cells assessed as decrease in phosphorylated RIPK1 level incubated for 8 hrs by western blot analysis; type: cell-based
MEF = assay: Anti-necroptic activity in mouse MEF cells assessed as inhibition of TSZ (TNFalpha, Smac mimetic and z-VAD-FMK) induced necroptosis incubated for 24 hrs by celltiter-glo luminescent cell viability assay; type: functional, cell-based
[22] = biological target: T1, Mixed lineage kinase domain-like protein (Homo sapiens); assay: Inhibition of FLAG-tagged human MLKL in human HT-29 cells assessed as inhibition of TSZ (TNFalpha, Smac mimetic and z-VAD-FMK) induced MLKL phosphorylation at 1 uM and measured after 8 hrs by Hoechst 33342 staining based immunofluorescence analysis; type: cell-based

| residual activity [2] [%] | inhibition [4] | residual activity [7] [%] | Activity [8] | inhibition [12] | residual activity [13] [%] | fold change (FC) [14] | Compound | inhibition (HT-29 [5]) | EC50 (HT-29 [9]) [nM] | further results |
| --- | --- | --- | --- | --- | --- | --- | --- | --- | --- | --- |
| 100 | Active | 82.6 | Active | Active | 99.8 | 150 | Cc1ccc(CCC(=O)Nc2c(Cl)n(CC#Cc3ccc(O)c(Cn4ccccc4=O)c3)c(=O)n(C)c2=O)cc1 | Active | 82 | EC50 (HT-29 [1]): > 10000 nM; Activity [3]: Active; EC50 (HT-29 [6]): 584 nM; EC50 (HT-29 [10]): 188 nM; EC50 (HT-29 [11]): 180 nM |
| 110 | Active | 101 | Active | Active | 110 | 150 | COc1cccn(Cc2cc(C#CCn3c(Cl)c(NC(=O)CCc4ccc(C)cc4)c(=O)n(C)c3=O)ccc2O)c1=O | Active | 31 | inhibition [15]: Active; residual activity [16]: 117% |
| – | – | – | – | – | – | – | COc1nccnc1NSc1ccc(NC(=O)/C=C/c2ccc([N+](=O)[O-])s2)cc1 | Active | – | inhibition [17]: Active |
| – | – | – | – | – | – | – | Cn1c(=O)c2c(nc(S(C)(=O)=O)n2C)n(CC#Cc2cccc(O)c2)c1=O | Active | 2 | inhibition [18]: Active; half-life [19]: 20 min; inhibition (HT-29 [20]): Active |
| – | – | – | – | – | – | – | CCC(C)(C)C(=O)N(O)Cc1ccccc1 | – | – | inhibition [21]: Active; inhibition (MEF): Active; inhibition [22]: Active |
